Measured values: PubChem BioAssay AID179 (DTP/NCI, 2004)
Activity calls are given as the source filed them.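 How the source made its calls: active means compounds giving half or more protection of infected cells from virus-caused growth loss, again on retest; inactive means the rest.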 Where a SMILES comes first, the peptide text is derived from it. Side-chain parts run from the residue outwards. The star is where a group is joined. Cbz = O=C(OCc1ccccc1)*; Boc = CC(C)(C)OC(=O)*

Test system: CEM cells HIV-1 protection, formazan growth assay
Assay: NCI AIDS Antiviral Assay
Details: for IC50: measured here: growth of uninfected CEM cells
Outline: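 Protection of CEM cells against HIV-1 measured as cell growth via soluble formazan read-out, with five concentrations tested on both infected and uninfected cells; failure to protect may reflect toxicity.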

SMILES	EC50 [µM]	IC50 [µM]	outcome
Oc1cccc2c(Cl)ccnc12	> 20	1.58	–
O=c1c2cccnc2ncn1CCCN1CCCC1	–	–	inactive
c1ccc(CN2COCO[C@H]3CCC[C@@H]32)cc1	> 200	123	–
c1n[nH]cc1C12C3C4C5C3C1C5C42 (centres undefined)	> 200	120	–
Cc1nnc(-n2c(O)cc(=O)n(-c3ccccc3)c2=S)nc1/C=C/c1ccc(N(C)C)cc1	> 100	5.62	–
COC(=O)c1cc(C(=CC(=O)N[C@@H]2CC[C@@]3(C)[C@@H](CC[C@@H]4[C@@H]3CC[C@]3(C)[C@@H]([C@H](C)CCCC(C)C)CC[C@@H]43)C2)c2cc(Cl)c(OC)c(C(=O)OC)c2)cc(Cl)c1OC	> 100	> 100	–
S=C1Nc2ccccc2SC1c1ccccc1 (centres undefined)	> 200	31.6	–
CCCCCCCCCC1C(C)c2c([nH]c3ccccc23)C2C(=O)N(c3ccccc3)C(=O)C21 (centres undefined)	–	–	inactive
O=[N+]([O-])c1ccc(Cl)cc1N/N=C/c1cccs1	> 200	> 100	–
COc1ccc(C2(CN(C)C)COc3cc(OC)c(OC)cc3C2=O)cc1OC (centres undefined)	–	–	inactive
Cc1ccc(S(=O)(=O)n2ccc(-c3ccc4ccn(S(=O)(=O)c5ccc(C)cc5)c4c3)c2)cc1	> 200	87.1	–
COc1cccc(-c2cc(C(=O)Nc3ccc(Cl)cc3)nc(N)n2)c1	> 72.4	52.5	–
Cn1c2ccccc2c2nnc(NCCCCO)nc21	> 200	> 200	–
CCOC(=O)NC(O)C(Cl)(Cl)Cl (centres undefined)	> 200	> 200	–
Cc1ccc(C(=O)C2C=C(c3ccc(C)cc3)SC3C=CCC32)cc1 (centres undefined)	> 200	14.8	–
Cn1c(COC(=O)NC2CCCCC2)c(COC(=O)NC2CCCCC2)c2ccc3cc(Cl)c(Cl)cc3c21	> 174	6.46	–
OCn1nc2c(C3OCCO3)cc3ccccc3n2c1=S	> 117	61.7	–
CS(=O)(=O)OCCn1cnc2nc(NC(=O)c3ccccc3)[nH]c(=O)c21	> 182	> 182	–
CCOC(=O)c1cc(Sc2ccc(N)c(C(=O)OCC)c2)ccc1N	> 200	15.5	–
CC(=O)c1c(-c2ccco2)c(C#N)c(=S)n(C2OC(CO)C(O)C(O)C2O)c1C (centres undefined)	> 200	87.1	–
CSc1ccc(-c2cn3ccsc3n2)c(O)c1	> 85.1	17.4	–
O=C1CC2C(=O)NC(=O)C2C(=O)N1 (centres undefined)	> 1380	> 1380	–

SMILES	EC50 [µM]	IC50 [µM]	outcome
CC(C)C1SCc2nc3ccccc3n21 (centres undefined)	> 200	95.5	–
COc1ccc(C2SCC(=O)N2c2ccc(-c3ccc(-n4c(-c5ccccc5)nc5ccccc5c4=O)cc3)cc2)cc1 (centres undefined)	> 200	33.9	–
COc1cc2c(c3c1[C@H](O)[C@H](C)[C@@H](C)O3)C=CC(C)(C)O2	> 200	81.3	–
N#Cc1ccc(C(C2C(=O)NC(=O)NC2=O)C2C(=O)NC(=O)NC2=O)cc1	> 70.8	> 70.8	–
COC(=O)C1=C2Nc3ccccc3[C@@]23CCN(Cc2ccccc2)C3CC1[C@@H]1COC(C)(C)O1 (some centres undefined)	> 100	51.3	–
Clc1ccc2c(NCCCCN=Cc3ccccc3)ccnc2c1	> 200	26.9	–
Nc1nnc2c(-c3ccccc3)[nH]nc2n1	–	–	inactive
C/C=C\C(=O)C#Cc1cnc(OC)nc1OC	> 2	0.0912	–
O=C(O)C1=CC(=C(c2ccc(O)c(C(=O)O)c2)c2ccc(O)c(C(=O)O)c2)C=C(Cc2ccc(O)c(C(=O)O)c2)C1=O	> 1200	195	–
O=C(Nc1ccc(/C=C\c2ccc([N+](=O)[O-])cc2S(=O)(=O)O)c(S(=O)(=O)O)c1)OCc1ccccc1	> 200	> 200	–
CCCCCC=C(c1cc(Cl)c(OC)c(C(=O)OCC)c1)c1cc(Cl)c(OC)c(C(=O)OCC)c1	> 10	> 10	–
CC(C)CNC1=NCC(C)S1 (centres undefined)	> 200	> 200	–
COc1ccc2c(c1)C(=O)CC(c1ccccc1OC)O2 (centres undefined)	> 200	34.7	–
CC(=O)n1c(=S)n(C(C)=O)c2ccccc21	> 200	> 200	–
CCN1C(=O)C(N2CCCCC2)S/C1=C\C(=O)O (centres undefined)	> 933	457	–
CCOC(=O)c1c(NC(=O)c2ccc(Br)cc2)sc2c1CCCC2	> 200	> 200	–
Cc1cc(=O)oc2cc(OCc3nc4ccccc4c(=O)n3-c3ccccc3)ccc12	> 43.7	> 43.7	–
CC(=O)OCC1OC(N2C(c3ccccc3)=CC(c3ccccc3)C(C#N)=C2S)C(OC(C)=O)C(OC(C)=O)C1OC(C)=O (centres undefined)	> 200	77.6	–
CC(C)(C)OC(=O)NC(CCCCNC(=O)CNC(=O)OCc1ccccc1)C(=O)NC(CCCCNC(=O)CNC(=O)OCc1ccccc1)C(=O)NC(CCCCNC(=O)CNC(=O)OCc1ccccc1)C(=O)NC(CCCCNC(=O)CNC(=O)OCc1ccccc1)C(=O)O (centres undefined) (Boc-K([Gly-Cbz])K([Gly-Cbz])K([Gly-Cbz])K([Gly-Cbz])-OH; configuration not given here)	72.4	> 100	–
C=C(c1cc(Br)c(OC)c(C(=O)OC)c1)c1cc(Br)c(OC)c(C(=O)OC)c1	> 100	> 100	–
Cn1c(=O)c2c([nH]c(=O)n2C)n(C)c1=O	> 200	> 200	–
CCCCCCCCCCCC1CC(=O)NCCCN(C)CCCCN(C)CCCN1C (centres undefined)	> 200	1.12	–

SMILES	EC50 [µM]	IC50 [µM]	outcome
Nc1ncnc2c(C3OC(CO)C(O)C3O)nsc12 (centres undefined)	> 200	–	–
N#C/C(=C/N1C(=O)/C(=C/c2ccc([N+](=O)[O-])cc2)SC1=S)C(N)=O	> 200	16.2	–
C#CC(C)(C)Oc1ccc2c(=O)c(-c3ccc(OC)cc3)coc2c1	> 200	20	–
O=C(O)c1cc(=O)c2cccc(O)c2[nH]1	> 200	> 200	–
CCCCCCCCCCCCOc1ccc(/C(=N\N=C(N)N)c2ccccc2)c(O)c1	> 200	> 200	–
Nc1nc2cc(CNc3ccc(C(=O)NC(CCC(=O)O)C(=O)O)cc3)ccc2nc1-c1ccccc1 (centres undefined)	> 200	12.3	–
O=C(O)CC[C@@]1(C(=O)O)NC(C(=O)O)Cc2[nH]cnc21 (some centres undefined)	> 437	> 437	–
Cc1cc2c(C(C)C)c(O)c(O)c(C=Nc3cccc(O)c3)c2c(O)c1-c1c(C)cc2c(C(C)C)c(O)c(O)c(C=Nc3cccc(O)c3)c2c1O	–	8.13	inactive
CC1=C(OC2OC(CO)C(O)C(O)C2O)C(=O)C[C@H]2C1=CC[C@@H]1[C@@]2(C)C(=O)C[C@]2(C)[C@@H]([C@@](C)(O)C(=O)CCC(C)(C)O)[C@H](O)C[C@@]12C (some centres undefined)	> 200	> 200	–
CC1(C)C2CCC13CS(=O)(=O)N=C3C2 (centres undefined)	–	–	inactive
c1ccc(N2N=C3N(c4ccccc4)C2N3c2ccccc2)cc1	> 200	30.2	–
O=c1c(SCc2ccc(Cl)cc2)c(N2CCOCC2)cnn1-c1ccccc1	> 63.1	44.7	–
COc1ccc(C[C@@H]2CN(C(=O)c3ccccc3)[C@H](Cc3ccc(O)cc3)CN2C(=O)c2ccccc2)cc1Br	> 200	126	–
c1cncc(CN2CCCC2)c1	–	–	inactive
C/C(=N\NC(N)=O)C(CN1CCCCC1)C(c1ccccc1)c1c(O)c2ccccc2oc1=O (centres undefined)	> 87.1	46.8	–
CC1CC(C)S(=O)CS1 (centres undefined)	> 759	> 759	–
COC(=N)CCCl	> 200	> 200	–
CC1=NOC(=O)/C1=C/c1cccc2ccccc12	> 1050	> 1050	–
Cc1sc2nc3n(c(=O)c2c1C)N=C(c1ccc(Cl)cc1)CS3	> 200	> 200	–
N#CC(C#N)=Cc1c[nH]c2ccccc12	–	–	inactive
O=C(O)C12CCC(CC1=O)C2 (centres undefined)	> 200	> 200	–
S=c1cn[nH]c2ccccc12	> 661	170	–

SMILES	EC50 [µM]	IC50 [µM]	outcome
C[Si](C)(C)c1ccc(-c2sc(-c3ccc([Si](C)(C)C)s3)c3c2C[Si]2(C3)Cc3c(-c4ccc([Si](C)(C)C)s4)sc(-c4ccc([Si](C)(C)C)s4)c3C2)s1	> 5.75	> 5.75	–
O=c1[nH]c(-n2[nH]c3c(c2=O)CCCC3)nc(O)c1-c1ccccc1	> 200	> 200	–
CC(=O)OCC1OC(n2c(=S)n(-c3ccc(C)cc3)c(=O)c3ccccc32)C(OC(C)=O)C(OC(C)=O)C1OC(C)=O (centres undefined)	> 31.6	> 31.6	–
CC1CNC2(c3ccccc3)CSC=C(c3ccccc3)N12 (centres undefined)	> 200	117	–
CC1CC(NN(C)C)=C(C#N)C1(C#N)C#N (centres undefined)	> 200	11.7	–
O=C1Nc2ccccc2/C1=N/N1CCCCCC1	> 200	97.7	–
Cc1ccc([Si](O)(c2ccc(C)cc2)c2ccc(C)cc2)cc1	> 200	12	–
CC1(C)c2ccccc2-c2nc3ccccc3c3c2C1OC3=O (centres undefined)	> 832	> 832	–
CC(C)(CO)CNc1nc(N)nc(Cl)c1N	> 200	> 200	–
Cc1ccc(SCC(CF)OCn2cnc3c(=O)[nH]c(N)nc32)cc1 (centres undefined)	> 20	> 20	–
Cc1ccc(NC(=O)CC/C(CC(=O)C(C)(C)C)=N/Nc2nnc(C)n2N)cc1C	> 87.1	> 87.1	–
CCC1=C(OC)c2nc(C)ccc2C(=O)C1=O	–	–	inactive
Cc1ccc(NC(=O)C(=O)CC(=O)C2CCOC2=O)c(C)c1 (centres undefined)	–	–	inactive
c1cc[c]([Sn]([S]c2cccc3cccnc23)([c]2ccccc2)[c]2ccccc2)cc1	–	–	inactive
C/C(=N\NC(=S)NCCCCNC(=S)N/N=C(\C)c1ccccn1)c1ccccc1	> 200	1.62	–
COc1ccc(C2CC3(c4ccccc4)ON=C(c4ccccc4)N3c3ccccc3S2)cc1 (centres undefined)	> 200	> 200	–
O=C1c2cc3c(cc2CC12Cc1ccc4c(c1C2=O)CCCC4)CCCC3 (centres undefined)	> 200	> 200	–
Cc1cc(=O)[nH]c(NN2C(Cl)C(=O)C2c2cccc(Cl)c2)n1 (centres undefined)	> 200	30.2	–
Cc1ccc(S(=O)(=O)CN2C(=O)C(c3ccccc3)(c3ccccc3)C23OC(c2ccc(Cl)cc2)=CC3=O)cc1 (centres undefined)	> 200	> 200	–
